Reference: publication PMC7646182, “Design and biological evaluation of novel BF-30 analogs for the treatment of malignant melanoma” (Journal of Cancer, 2020)

Tested on: B16F10 melanoma
Experiment: Chronic study in B16F10-bearing mouse model
Assay type: in vivo
Conditions: B16F10-bearing C57BL/6J mice, 4-week treatment; LBF-14 0.3 and 0.9 mg/kg, cisplatinum 0.1 mg/kg, n=10
Protocol: The B16F10 cells (0.1 ml, 5×10^6 cells, cell viability >99%) were subcutaneously transplanted into the C57BL/6J mice. In the next 15 days, the length (L), width (W) and height (H) of tumours were measured with a caliper to calculate tumour volume using the formula: V = π/6×L×W×H. When the tumours grew to 150-350 mm^3, the melanoma model mice were randomly divided into five groups (n=10) and received saline, native BF-30 at 0.9 mg/kg, LBF-14 at […] doses of 0.3 and 0.9 mg/kg, and cisplatinum at the dose of 0.1 mg/kg, respectively. All the samples including the saline and different doses of LBF-14 were administered twice weekly by intra-tumour injection (50 μl) for 4 successive weeks. All melanoma model mice were weighted and sacrificed at the end of the experimental period (day 29). The anti-tumour efficacies of LBF-14 at both two doses were presented as inhibitory rates (%) which were calculated as [(A-B)/A]×100% (average tumour weight of (A) saline treated group and (B) LBF-14 treated groups, respectively). In addition, the tumours from the B16F10-bearing mice were separated and then performed H&E staining according to the standard operating procedures.

N.N.[Cl][Pt][Cl] [cisplatinum]
effect on body weight of model mice: significant decrease in body weight
